The values that follow come from patent publication US8012991B2, “Pyridoindolone derivatives substituted in the 3-position by a phenyl, their preparation and their application in therapeutics” (Sanofi-Aventis, priority 2002, dated 2011).

Molecules are shown by their SMILES.

`COc1ccc2c(c1)c1cc(-c3ccc(Cl)cc3Cl)c(=O)n(C)c1n2C` [Compound 21, 3-(2,4-Dichlorophenyl)-6-methoxy-1,9-dimethyl-1,9-dihydro-2H-pyrido[2,3-b]indol-2-one] registered a melting point of 130 °C. Take `Cc1ccc2c(c1)c1cc(-c3ccc(Cl)cc3Cl)c(=O)n(C)c1n2C` [Compound 2, 3-(2,4-Dichlorophenyl)-1,6,9-trimethyl-1,9-dihydro-2H-pyrido[2,3-b]indol-2-one]: the melting point was found to be 170 °C. Next, `Cc1cc(C)cc(-c2cc3c4cc(C)ccc4n(C)c3n(C)c2=O)c1` [Compound 1, 3-(3,5-Dimethylphenyl)-1,6,9-trimethyl-1,9-dihydro-2H-pyrido[2,3-b]indol-2-one]: 210 °C.
